What follows are molecules tested against T1, acetylcholinesterase (AChE) (Homo sapiens, UniProt P22303) (assay: Ellman assay, percent inhibition at […]).
T1 construct: recombinant acetylcholinesterase (AChE) expressed in HEK 293 cells
T1 sequence (P22303 32-614): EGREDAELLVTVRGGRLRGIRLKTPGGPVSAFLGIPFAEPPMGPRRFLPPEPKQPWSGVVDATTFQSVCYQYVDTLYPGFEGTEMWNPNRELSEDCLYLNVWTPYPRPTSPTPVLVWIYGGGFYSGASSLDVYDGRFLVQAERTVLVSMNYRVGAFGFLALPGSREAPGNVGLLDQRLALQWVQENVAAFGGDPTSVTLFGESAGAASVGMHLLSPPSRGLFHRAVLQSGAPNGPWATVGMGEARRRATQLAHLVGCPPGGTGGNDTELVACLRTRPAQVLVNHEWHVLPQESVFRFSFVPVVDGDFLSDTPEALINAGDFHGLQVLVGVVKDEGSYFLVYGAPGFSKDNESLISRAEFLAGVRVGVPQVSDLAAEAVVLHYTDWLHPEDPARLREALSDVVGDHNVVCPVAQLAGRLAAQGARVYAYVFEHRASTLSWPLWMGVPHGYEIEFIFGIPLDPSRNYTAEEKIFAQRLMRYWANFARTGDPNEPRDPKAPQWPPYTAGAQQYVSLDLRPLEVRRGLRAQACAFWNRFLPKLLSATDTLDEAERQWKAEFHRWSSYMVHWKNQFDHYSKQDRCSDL
Format: biochemical
Work on `O=C1c2ccccc2C2=NCCc3cccc1c32` [OXO 1, 2,3-dihydro-7H-dibenzo[de,h]quinolin-7-one] yielded an inhibition at 75 µM of 26.2 ± 5.6%.
With `O=C1C2=C(CCCC2)C2=NCCc3cccc1c32` [OXO 13, 2,3,8,9,10,11-hexahydro-7H-dibenzo[de,h]quinolin-7-one] the inhibition at 75 µM was 25.6 ± 5.9%.
`C#CCN[C@@H]1CCc2ccccc21` [Rasagiline, reference compound] gave an inhibition at 75 µM of 82.5 ± 4.3%.
